Where a name gives a salt, the structure may show the parent alone. Read-outs that look alike come from different tables or passages of the source.
Experiments:
[1] = test system: human PRP; experiment: Inhibition of ADP-induced aggregation in human platelet rich plasma (PRP), method of Born; type: cell-based; conditions: aggregation provoked by 4 μmol/ml of ADP, read-out: IC50 on human PRP (concentration required to attain 50% inhibiting effect)
Text: (§1) The main pharmacological effect of the new compounds according to the invention is that, like PGI2, they inhibit blood platelet aggregation and are able to dissolve the already existing agglomerates. The aggregation inhibiting effects of the new compounds were examined on human and guinea pig platelet rich plasma (PRP) according to the method of Born. Aggregation was provoked by adding 4 μmol/ml of ADP to the plasma, and then the prostacycline concentrations required to attain 50% or 100% inhibiting effect (IC50 or IC100) were determined.

[2] = test system: guinea pig PRP; experiment: Inhibition of ADP-induced aggregation in guinea pig platelet rich plasma (PRP), method of Born; type: cell-based; conditions: Cavia porcellus, aggregation provoked by 4 μmol/ml of ADP, read-out: IC100 on guinea pig PRP (concentration required to attain 100% inhibiting effect)
Text: as §1

[3] = sodium salt: storage, free acid: physiological conditions, hydrolysis into 6-keto-PGF1α, cited from earlier work
[4] = Biological half-life in aqueous medium (period within which the biological activity drops to the half); type: physicochemical; conditions: aqueous medium at pH=7
Method: The biological half-life (i.e. the period within which the biological activity of the substance drops to the half) is 3 minutes for PGI2 an an aqueous medium at pH=7, and about 7 days for the new compounds according to the invention.

Compound | IC50 [1] [ng/mL] | IC100 [2] [µg/mL] | stability of prostacycline sodium salt / free acid ([3]; listed as sodium salt of prostacycline) | half-life [4] [min] | stability of prostacycline sodium salt / free acid ([3]; listed as free PGI2 acid)
CCCCCC[C@H](O)/C=C/[C@@H]1[C@H]2C/C(=C/c3cccc(C(=O)O)c3)O[C@H]2C[C@H]1O [5(Z)-2,3,4-Trinor-1,5-inter-m-phenylene-20-methyl-PGI2 sodium salt] | 12.5 | 0.014 |  |  | 
CCCCC[C@H](O)/C=C/[C@@H]1[C@H]2C/C(=C/CCCC(=O)O)O[C@H]2C[C@H]1O [PGI2 sodium salt] | 2 | 0.00175 | very stable, highly storable compound |  | 
CCCCC[C@H](O)/C=C/[C@@H]1[C@H]2C/C(=C/CCCC(=O)O)O[C@H]2C[C@H]1O [PGI2] |  |  |  | 3 | rapidly hydrolyzes into 6-keto-PGF1α

— patent US4451483A, “2,3,4-Trinor-m-inter-phenylene-prostaglandin derivatives and compositions and method for inhibiting blood platelet aggregation” (Chinoin Gyogyszer es Vegyeszeti Termekek Gyara Rt., priority 1981, dated 1984)
